Experimental data reported in US20020173538A1, “Method for sensitizing cancer cells to cancer therapies with a mevalonate-reducing compound” (priority 2000, published 2002).
Read-outs that look alike come from different tables or passages of the source.

What was measured:
[1] = tested on: Hep 3B/T2 cells; assay: Tumor growth of Hep 3B/T2 cells in nude mice; format: in vivo, BALB/c-nu/nu nude mice
Description: The descriptive statistics were summarized as mean±STD. For statistical analysis, Student's t-test was used to determine significance of mean differences between groups.

[2] = tested on: Hep 3B cells; assay: Cell cycle determination by flow cytometry, Hep 3B; format: cell-based, human; settings: cell line not given
[3] = tested on: Hep 3B/T2 cells; assay: Tumor growth of Hep 3B/T2 cells in nude mice; format: in vivo, BALB/c-nu/nu nude mice; settings: for Tumor size: LOV 75 mg/kg/day p.o. days 8-14 and/or taxol 120 μg/kg/day i.p. days 15-19, n = 3
[4] = MTT cell viability assay, Hep G2 cells (serum-free DMEM); settings: human, Hep G2 cells, Cell viability
Description: (§1) Human hepatoma cell lines Hep G2 and Hep 3 were chosen as the in vitro models of hepatocytes and hepatoma, respectively.

[5] = tested on: Hep G2 cells; assay: as above; settings: Homo sapiens
Description: as §1

[6] = tested on: Hep 3B cells; assay: MTT cell viability assay, Hep 3B cells (serum-free DMEM); settings: Homo sapiens, Hep3B, 48 h
Description: as §1

[7] = Cycle 1 (Day 42), LOV 37.5 mg/kg/day p.o. days 28-34 and 49-55 and/or taxol 120 μg/kg/2 day i.p. day 36, 38, 40, 57, 59, 61
[8] = Cycle 2 (Day 63), LOV 37.5 mg/kg/day p.o. days 28-34 and 49-55 and/or taxol 120 μg/kg/2 day i.p. day 36, 38, 40, 57, 59, 61

SMILES: CC(=O)O[C@H]1C(=O)[C@@]2(C)[C@H]([C@H](OC(=O)c3ccccc3)[C@]3(O)C[C@H](OC(=O)[C@H](O)[C@@H](NC(=O)c4ccccc4)c4ccccc4)C(C)=C1C3(C)C)[C@]1(OC(C)=O)CO[C@@H]1C[C@@H]2O [Taxol, paclitaxel]
- Tumor size [1, 7]: 0.465 cm^3
- Tumor size [1, 8]: 1.424 cm^3
- percentage of inhibition of tumor size [1, 8]: (−43.1%
- Tumor size ([1]; Day 15, LOV 75 mg/kg/day p.o. days 8-14 and/or taxol 120 μg/kg/day i.p. days 15-19, n = 3): 0.125 cm^3
- Tumor size ([1]; Day 20, LOV 75 mg/kg/day p.o. days 8-14 and/or taxol 120 μg/kg/day i.p. days 15-19, n = 3): 0.047 cm^3
- Tumor size ([1]; Day 23, LOV 75 mg/kg/day p.o. days 8-14 and/or taxol 120 μg/kg/day i.p. days 15-19, n = 3): 0.037 cm^3
- Tumor size (1 × w^2 × 0.52 cm^3) Day 28 ([1]; Day 28 after inoculation of 1 × 10^7 Hep 3B/T2 cells in male BALB/c-nu/nu nude mice, p.o. lovastatin 37.5 mg/kg/day (days 28-34, 49-55) and/or i.p. taxol 120 μg/kg/2 day (days 36, 38, 40, 57, 59, 61), mean ± SEM): 0.170 cm^3
- Tumor size ([1]; after two cycles: lovastatin fed 7 days, then paclitaxel injected 3 days (FIG. 38), mean±STD): 1.43±0.46 cm^3
- cell cycle arrest stage [2]: G2/M arrest
- percentage of inhibition of tumor size [3, 7]: (−54.2%
- Tumor size ([3]; Day 8): 0.111 cm^3
- Tumor size ([3]; Day 11): 0.125 cm^3
- Tumor size ([3]; Day 17): 0.063 cm^3
- Tumor size ([3]; Day 26): 0.064 cm^3
- Tumor size ([3]; Day 29): 0.137 cm^3
- Tumor size (1 × w^2 × 0.52 cm^3) Day 35 ([3]; Day 35 after inoculation, p.o. lovastatin 37.5 mg/kg/day (days 28-34, 49-55) and/or i.p. taxol 120 μg/kg/2 day (days 36, 38, 40, 57, 59, 61), mean ± SEM): 0.400 cm^3
- Tumor size (1 × w^2 × 0.52 cm^3) Day 38 ([3]; Day 38 after inoculation, p.o. lovastatin 37.5 mg/kg/day (days 28-34, 49-55) and/or i.p. taxol 120 μg/kg/2 day (days 36, 38, 40, 57, 59, 61), mean ± SEM): 0.415 cm^3
- Tumor size (1 × w^2 × 0.52 cm^3) Day 42 ([3]; Day 42 after inoculation, p.o. lovastatin 37.5 mg/kg/day (days 28-34, 49-55) and/or i.p. taxol 120 μg/kg/2 day (days 36, 38, 40, 57, 59, 61), mean ± SEM): 0.465 cm^3
- Tumor size (1 × w^2 × 0.52 cm^3) Day 49 ([3]; Day 49 after inoculation, p.o. lovastatin 37.5 mg/kg/day (days 28-34, 49-55) and/or i.p. taxol 120 μg/kg/2 day (days 36, 38, 40, 57, 59, 61), mean ± SEM): 0.811 cm^3
- Tumor size (1 × w^2 × 0.52 cm^3) Day 56 ([3]; Day 56 after inoculation, p.o. lovastatin 37.5 mg/kg/day (days 28-34, 49-55) and/or i.p. taxol 120 μg/kg/2 day (days 36, 38, 40, 57, 59, 61), mean ± SEM): 0.996 cm^3
- Tumor size (1 × w^2 × 0.52 cm^3) Day 63 ([3]; Day 63 after inoculation, p.o. lovastatin 37.5 mg/kg/day (days 28-34, 49-55) and/or i.p. taxol 120 μg/kg/2 day (days 36, 38, 40, 57, 59, 61), mean ± SEM): 1.424 cm^3
- viability at 48 h, 2 nM ([4]; no lovastatin 48 hr, then taxol 2 nM 48 hr): 92.2 ± 1.5%
- viability at 48 h, 5 nM ([4]; no lovastatin 48 hr, then taxol 5 nM 48 hr): 61.5 ± 2.2%
- viability at 48 h, 10 nM ([4]; no lovastatin 48 hr, then taxol 10 nM 48 hr): 57.9 ± 3.3%
- viability at 48 h, 2 nM ([4]; no lovastatin 72 hr, then taxol 2 nM 48 hr): 85.1 ± 1.9%
- viability at 72 hr, 2 nM ([4]; no lovastatin 72 hr, then taxol 2 nM 72 hr): 77.7 ± 2.6%
- viability at 48 h, 5 nM ([4]; no lovastatin 72 hr, then taxol 5 nM 48 hr): 64.2 ± 1.2%
- viability at 72 h, 5 nM ([4]; no lovastatin 72 hr, then taxol 5 nM 72 hr): 65.8 ± 1.3%
- viability at 48 h, 10 nM ([4]; no lovastatin 72 hr, then taxol 10 nM 48 hr): 60.5 ± 3.2%
- viability at 72 h, 10 nM ([4]; no lovastatin 72 hr, then taxol 10 nM 72 hr): 63.6 ± 8.4%
- viability at 96 h, 2 nM ([4]; taxol 2 nM alone, Table 10): 72.4 ± 6.9%
- viability at 48 h, 2 nM ([4]; taxol 2 nM, 48 hr): 94.5 ± 5.4%
- viability at 48 h, 2 nM ([4]; taxol 2 nM, 48 hr, Table 9): 88 ± 1.9%
- viability at 72 h, 2 nM ([4]; taxol 2 nM, 72 hr): 89.2 ± 2.6%
- viability at 72 h, 2 nM ([4]; taxol 2 nM, 72 hr, Table 9): 89.2 ± 2.6%
- viability at 96 h, 2 nM ([4]; taxol 2 nM): 66.6 ± 3.5%
- viability at 120 h, 2 nM ([4]; taxol 2 nM, 120 hr): 65.1 ± 0.9%
- viability at 96 h, 5 nM ([4]; taxol 5 nM alone, Table 10): 49.3 ± 9.9%
- viability at 48 h, 5 nM ([4]; taxol 5 nM, 48 hr): 72.9 ± 4%
- viability at 48 h, 5 nM ([4]; taxol 5 nM, 48 hr, Table 9): 74.7 ± 2.3%
- viability at 72 h, 5 nM ([4]; taxol 5 nM, 72 hr): 63.7 ± 2.3%
- viability at 72 h, 5 nM ([4]; taxol 5 nM, 72 hr, Table 9): 63.7 ± 2.3%
- viability at 96 h, 5 nM ([4]; taxol 5 nM): 36.2 ± 5.5%
- viability at 120 h, 5 nM ([4]; taxol 5 nM, 120 hr): 33.8 ± 0.6%
- viability at 96 h, 10 nM ([4]; taxol 10 nM alone, Table 10): 24.8 ± 2.5%
- viability at 48 h, 10 nM ([4]; taxol 10 nM, 48 hr): 64.2 ± 3.8%
- viability at 48 h, 10 nM ([4]; taxol 10 nM, 48 hr, Table 9): 58.1 ± 8.1%
- viability at 72 h, 10 nM ([4]; taxol 10 nM, 72 hr): 39 ± 0.5%
- viability at 72 h, 10 nM ([4]; taxol 10 nM, 72 hr, Table 9): 39 ± 0.5%
- viability at 96 h, 10 nM ([4]; taxol 10 nM): 22.7 ± 4.1%
- viability at 120 h, 10 nM ([4]; taxol 10 nM, 120 hr): 19 ± 3.4%
- viability at 48 h, 20 nM ([4]; taxol 20 nM, 48 hr): 53.5 ± 1.1%
- viability at 72 h, 20 nM ([4]; taxol 20 nM, 72 hr): 35.4 ± 3.6%
- viability at 48 h, 50 nM ([4]; taxol 50 nM, 48 hr): 47 ± 2.3%
- viability at 72 h, 50 nM ([4]; taxol 50 nM, 72 hr): 33.9 ± 3.7%
- viability at 48 h, 100 nM ([4]; taxol 100 nM, 48 hr): 34.6 ± 9.1%
- viability at 72 h, 100 nM ([4]; taxol 100 nM, 72 hr): 19.5 ± 4.6%
- viability at 48 h, 200 nM ([4]; taxol 200 nM, 48 hr): 35.4 ± 5.5%
- viability at 72 h, 200 nM ([4]; taxol 200 nM, 72 hr): 15.6 ± 5.8%
- viability at 48 h, 500 nM ([4]; taxol 500 nM, 48 hr): 29.1 ± 4.2%
- viability at 72 h, 500 nM ([4]; taxol 500 nM, 72 hr): 11 ± 5%
- viability at 48 h, 1000 nM ([4]; taxol 1000 nM, 48 hr): 15 ± 3.9%
- viability at 72 h, 1000 nM ([4]; taxol 1000 nM, 72 hr): 9.9 ± 4.9%
- IC50 ([5]; HepG2, 48 h, read-out: IC50 (cell viability), 48 hr, Table 8): 40.8 ± 7 nM
- IC50 ([5]; HepG2, 48 h, read-out: IC50 (cell viability), 48 hr, Table 9): 12.4 nM
- IC50 ([5]; HepG2, 72 h, read-out: IC50 (cell viability), 72 hr, Table 8): 7.8 ± 1 nM
- IC50 ([5]; HepG2, 72 h, read-out: IC50 (cell viability), 72 hr, Table 9): 7.8 nM
- IC50 ([5]; HepG2, 96 h, read-out: IC50 (cell viability), 96 hr): 3.6 nM
- IC50 ([5]; HepG2, 120 h, read-out: IC50 (cell viability), 120 hr): 3.5 nM
- viability at 0.002 µM ([6]; read-out: Cell viability, taxol 2 nM, 48 hr): 93.1 ± 1.3%
- viability at 0.002 µM ([6]; read-out: Cell viability, taxol 2 nM, 48 hr, Table 9): 97 ± 1.5%
